Where a SMILES comes first, the peptide text is derived from it. Bridges are numbered along the chain shown (N, C = ends). The star is where a group is joined. Propionyl = CCC(=O)*
Tested on: serum calcium concentration
Method: Biological Assay of Calcitonin Analogs in Vivo
The biological potency of [N-alpha-Propionyl, 8-glycine, des-19-leucine] salmon calcitonin was determined by comparing the reduction of serum calcium concentration which followed administration by graded doses of [N-alpha-Propionyl, Gly^8, des-Leu^19 ]-SCT and synthetic salmon calcitonin standard. Rats were divided into four groups of seven animals, and each group was assigend at random to a dose of standard or test solution. Low and high doses were chosen from the linear portion of the dose-response curve. For the salmon calcitonin standard, the values were 0.7 and 2.1 ng. peptide/100 g. BW. Peptides were given by subcutaneous injection (0.2 ml/100 g. BW) and blood was withdrawn 1 hour later for serum calcium determination. Sera are processed and analyzed within two hours of collection.

For `CCC(=O)N[C@H]1CSSC[C@@H](C(=O)NCC(=O)N[C@@H](CC(C)C)C(=O)NCC(=O)N[C@@H](CCCCN)C(=O)N[C@@H](CC(C)C)C(=O)N[C@@H](CO)C(=O)N[C@@H](CCC(N)=O)C(=O)N[C@@H](CCC(=O)O)C(=O)N[C@@H](CC(C)C)C(=O)N[C@@H](Cc2c[nH]cn2)C(=O)N[C@@H](CCCCN)C(=O)N[C@@H](CCC(N)=O)C(=O)N[C@H](C(=O)N[C@@H](Cc2ccc(O)cc2)C(=O)N2CCC[C@H]2C(=O)N[C@@H](CCCNC(=N)N)C(=O)N[C@H](C(=O)N[C@@H](CC(N)=O)C(=O)N[C@H](C(=O)NCC(=O)N[C@@H](CO)C(=O)NCC(=O)N[C@H](C(=O)N2CCC[C@H]2C(N)=O)[C@@H](C)O)[C@@H](C)O)[C@@H](C)O)[C@@H](C)O)NC(=O)[C@H]([C@@H](C)O)NC(=O)[C@H](CO)NC(=O)[C@H](CC(C)C)NC(=O)[C@H](CC(N)=O)NC(=O)[C@H](CO)NC1=O` [[N alpha-propionyl, 8-glycine, des-19-leucine] salmon calcitonin] (Propionyl-CSNLSTCGLGKLSQELHKQTYPRTNTGSGTP-NH2; disulfide 1-7), which biological potency (rat, in vivo, sc) is on record?
The biological potency was 9,700 IU/mg.

`CC(C)C[C@H](NC(=O)[C@H](CCCCN)NC(=O)CNC(=O)[C@H](CC(C)C)NC(=O)[C@@H](NC(=O)[C@@H]1CSSC[C@H](N)C(=O)N[C@@H](CO)C(=O)N[C@@H](CC(N)=O)C(=O)N[C@@H](CC(C)C)C(=O)N[C@@H](CO)C(=O)N[C@@H]([C@@H](C)O)C(=O)N1)C(C)C)C(=O)N[C@@H](CO)C(=O)N[C@@H](CCC(N)=O)C(=O)N[C@@H](CCC(=O)O)C(=O)N[C@@H](CC(C)C)C(=O)N[C@@H](Cc1c[nH]cn1)C(=O)N[C@@H](CCCCN)C(=O)N[C@@H](CC(C)C)C(=O)N[C@@H](CCC(N)=O)C(=O)N[C@H](C(=O)N[C@@H](Cc1ccc(O)cc1)C(=O)N1CCC[C@H]1C(=O)N[C@@H](CCCNC(=N)N)C(=O)N[C@H](C(=O)N[C@@H](CC(N)=O)C(=O)N[C@H](C(=O)NCC(=O)N[C@@H](CO)C(=O)NCC(=O)N[C@H](C(=O)N1CCC[C@H]1C(N)=O)[C@@H](C)O)[C@@H](C)O)[C@@H](C)O)[C@@H](C)O` [standard salmon calcitonin, Salmon calcitonin] was tested. Which “biological potency of the standard, independently determined” value (standard salmon calcitonin used in the assay) did it give?
Its value is “greater than 4,000 IU/mg”.
